The nature of data set [1]: Cytotoxicity in CEM cells. As to conditions: human, CEM cells.
Data set [2] is described as follows: in vitro. In kind it is cell-based. Conditions: 7 days; read-out: PBMC 7 days CC50. The text has this: (§1) Cytotoxicity testing can be carried out according to standard methods. MDBK, PBM, HepG2, Huh7 and Vero cells were used. […]. […] Afterwards the plates containing the dye are read at 490 nm. Each assay was done in triplicate. Such methodologies are well described and available from the manufacturer (Promega).

Data set [3] in a line: Cytotoxicity in Vero cells. In kind it is cell-based. As to conditions: African green monkey. As for the experimental part: (§2) Cytotoxicity testing can be carried out according to standard methods. MDBK, PBM, HepG2, Huh7 and Vero cells were used. […]. After a three day-incubation, cell viability and mitochondrial activity are measured by adding the MTS-dye (Promega), followed by a 3 hours incubation. Afterwards the plates containing the dye are read at 490 nm. Each assay was done in triplicate. Such methodologies are well described and available from the manufacturer (Promega).

Data set [4] has as its target human IMPDH. As to the kind of experiment: IMPDH inhibition (Ki). In kind it is biochemical. Conditions: Table 2; read-out: IMPDH Ki.
The subject of data set [5] is BVDV. Put plainly: BVDV real time RT-PCR antiviral assay in MDBK cells. The data set is classed as cell-based, Bovine viral diarrhea virus (BVDV), strain NADL. The procedure:
As one illustration of this method, in the case of BVDV in MDBK cells, in a first step, viral RNA is isolated from 140 μL of the cell culture supernatant by means of a commercially available column (Viral RNA extraction kit, QiaGen, CA). The viral RNA is then eluted from the column to yield a total volume of 60 μL, and subsequently amplified with a quantitative RT-PCR protocol using a suitable primer for the BVDV NADL strain. A quenched fluorescent probe molecule is hybridized to the BVDV DNA, which then undergoes exonucleolytic degradation resulting in a detectable fluorescent signal. Therefore, the RT-PCR amplified DNA was detected in real time by monitoring the presence of fluorescence signals. The TaqMan probe molecule (5′ 6-fam-[…]-tamara 3′ [Sequence ID No. 7] and primers (sense: 5′-[…]-3′ [Sequence ID No. 8]; and antisense: 5′-[…]-3′ [Sequence ID No. 9]) were designed with the aid of the Primer Express software (PE-Applied Biosystems) to be complementary to the BVDV NADL NS5B region. A total of 10 μL of RNA was analyzed in a 50 μL RT-PCR mixture. Reagents and conditions used in quantitative PCR were purchased from PE-Applied Biosystems. The standard curve that was created using the undiluted inoculum virus ranged from 6000 plaque forming units (PFU) to 0.6 PFU per RT-PCR mixture.
Maldin-Darby bovine kidney (MDBK) cells were grown and maintained in a modified eagle medium (DMEM/F12; GibcoBRL), supplemented with 10% heat inactivated horse serum at 37° C. in a humidified, 5% CO2, incubator.
Bovine viral diarrhea virus (BVDV), strain NADL, causes a cytopathogenic effect (CPE) after infection of these cells.
Cells that were not treated with a test compound were considered a negative control, while ribavirin served as a positive control. Viral RNA was extracted and analyzed by real time RT-PCR.
Controls were Ribavirin and the polyoxymetalate HPA-023 in these experiments.

Data set [6] is described as follows: Cytotoxicity in HepG2 cells. In kind it is cell-based. Conditions: human. The procedure:
as §2

Data set [7] can be described thus: Cytotoxicity in MDBK cells. In kind it is cell-based.
Text: as §1

For data set [8], the system named is BVDV. Put plainly: BVDV real time RT-PCR antiviral assay in MDBK cells. The data set is classed as cell-based, Bovine viral diarrhea virus (BVDV), strain NADL. As to conditions: dose-response, 24 hours post-infection.
The mark [9] stands for this setting: Bovine viral diarrhea virus isolates and strains, MDBK, 22 h.

Like-named read-outs stand apart in the source and are kept apart here. Some results are limits rather than exact numbers.

In the case of `NC(=O)c1ncn([C@@H]2O[C@H](CO)[C@@H](O)[C@H]2O)n1` [Ribavirin], the CC50 at 7 days in data set [1] is 75 µM; in data set [2], more than 100 µM. Also, the CC50 at 3 days in data set [3] was more than 100 µM; in data set [6] it was 80 µM; in data set [7] (Table 1) it was 4 µM; in data set [7] (Table 2), 5 µM. In addition, the Ki in data set [4] stood at 0.2 µM. The “max log reduction Viral Load” value in data set [5] (BVDV real time RT-PCR, MDBK cells, after 22 hours, tested at 40 μM) is listed as >2 (40 μM) log. Moreover, in data set [5] (setting [9]), the response was half-maximal at 0.7 µM (EC50). For the same molecule, the EC90 was 5 µM in data set [5] (setting [9]); 2 µM in data set [5] (Bovine viral diarrhea virus isolates and strains, MDBK, 24 h, read-out: Antiviral (24 hrs) EC90). Besides, in data set [5] (MDBK CC50 24 hrs / antiviral EC90 24 hrs), the “Selectivity Index (24 hrs/24 hrs) CC50/EC90” value was determined as 5. Further, the “virus production / viral RNA versus negative control” value in data set [5] (MDBK cells, MOI 0.02, 22 hours, real time RT-PCR) is on record as “almost complete absence of viral RNA”. This molecule displayed a CC50 at 24 h in data set [7] (24 hrs) of more than 100 µM. Besides, the “intracellular viral RNA reduction, relative effectiveness (FIG. 9)” value in data set [8] is on record as “more effective than C2-MAD”.

(Values after patent publication US20040266723A1, “Antiviral agents for treatment of Flaviviridae infections” (priority 2000, published 2004).)
